Assay results taken from US12391939B2, “Genetically-encoded bicyclic peptide libraries” (THE GOVERNORS OF THE UNIVERSITY OF ALBERTA, priority 2018, dated 2025).
Numbered stars: 1 amine (or outer) side, 2 acyl side, 3 side chain; on linkers, the order of the positions; unused ones are H or OH. Bridge positions count the residues as written; N and C are the ends. Ends that are not written are not given here. Peptide text beside a SMILES is read from it. X1 = O=C(C=NOCCCCCCOc1cc(C[*:2])cc(C[*:3])c1)[*:1]; X2 = O=C(C=NOCc1cc(C[*:2])cc(C[*:3])c1)[*:1]; TSL6 = not defined here

Key:
[1] = in vitro; details: for remaining at 5 h: isolated enzyme pronase
Experimental: The mixture was analyzed by ion-selective LCMS. […] Linear, disulfide and two bicycle compounds made from TSL-1 and TSL-6 linker were incubated with Pronase™ for the indicated period of time (up to 5 hours). The reaction was diluted and analyzed by Ion selective MS-UPLC. The numbers indicate % of intact compound remaining after 5 hours of digestion.
In another rigorous stability test, an aggressive cocktail of endo- and exoproteases (Pronase) were used to digest linear sequence [sequence]

[2] = biological target: T1, Nodal (Homo sapiens, UniProt Q96S42); experiment: Inhibition of Nodal-induced Smad2 phosphorylation in P19 cells (Western blot, anti-phospho Smad antibody); format: cell-based; details: for ability to antagonize the signaling function of protein Nodal: carcinoma cells
T1 construct: host or cells: added to embryonic carcinoma P19 cells
T1 sequence (Q96S42 238-347): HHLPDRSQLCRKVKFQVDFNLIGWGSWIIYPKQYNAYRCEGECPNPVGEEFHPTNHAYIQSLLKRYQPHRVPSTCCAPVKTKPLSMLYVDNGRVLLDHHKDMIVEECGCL
Experimental: To validate the binding ability of the predicted ligands, we tested the ability of the bicycles to inhibit a known signaling event induced by Nodal. Specifically, we employed Western blot with anti-phospho Smad antibody to detect Nodal-induced phosphorylation of effector protein Smad2 in embryonic carcinoma P19 cells. FIG. 17a describes that treatment of P19 cells with 100 ng/mL Nodal for 1 hour in Dulbecco's Modified Eagles Media (DMEM) supplemented with 2.5% fetal bovine serum (FBS)+7.5% bovine serum albumin (BSA) induces increase in pSmad2 intensity. Nodal-induced increase in pSmad is abrogated when P19 cells are incubated with 100 ng/mL Nodal and known kinase inhibitors SB-431542. […] The bicyclic peptides serve as antagonists of Nodal at 100 micromolar concentration.

remaining at 5 h [1] | Compound | other results
0.4 ± 0.1% | CC(C)C[C@H](NC(=O)[C@H](Cc1ccc(O)cc1)NC(=O)[C@H](CS)NC(=O)[C@H](CCC(=O)O)NC(=O)[C@H](CCCNC(=N)N)NC(=O)[C@H](Cc1ccc(O)cc1)NC(=O)[C@H](CC(=O)O)NC(=O)[C@H](Cc1c[nH]c2ccccc12)NC(=O)[C@@H](N)CO)C(=O)N[C@@H](CCC(=O)O)C(=O)N[C@@H](CS)C(=O)O [reference compound] (H-SWDYRECYLEC-OH; N-terminus and C-terminus assumed) | –
68 ± 14% | CC(C)C[C@@H]1NC(=O)[C@H](Cc2ccc(O)cc2)NC(=O)[C@@H]2CSCc3cc(cc(c3)OCCCCCCON=CC(=O)N[C@@H](Cc3c[nH]c4ccccc34)C(=O)N[C@@H](CC(=O)O)C(=O)N[C@@H](Cc3ccc(O)cc3)C(=O)N[C@@H](CCCNC(=N)N)C(=O)N[C@@H](CCC(=O)O)C(=O)N2)CSC[C@@H](C(=O)O)NC(=O)[C@H](CCC(=O)O)NC1=O (WDYRECYLEC-OH; linker N-6-10 via X1; C-terminus assumed) | –
– | SYCKRAHKNC (linker (positions not given here) via TSL6; reading uncertain; also: bicyclised with TSL6 linker) [bicyclic peptide 11] | ability to antagonize the signaling function of protein Nodal [2]: have the ability to antagonize
– | NC(=O)c1ccc(-c2nc(-c3ccc4c(c3)OCO4)c(-c3ccccn3)[nH]2)cc1 [SB-431542, reference compound] | Nodal-induced increase in pSmad with known kinase inhibitor ([2]; P19 cells, 100 ng/mL Nodal, inhibitor concentration not given): abrogated
– | SPCQRGHMFC (linker (positions not given here) via TSL6; reading uncertain; also: bicyclised with TSL6 linker) [bicyclic peptide 7] | ability to antagonize the signaling function of protein Nodal [2]: have the ability to antagonize
0.9 ± 0.4% | CC(C)C[C@@H]1NC(=O)[C@H](Cc2ccc(O)cc2)NC(=O)[C@@H](NC(=O)[C@H](CCC(=O)O)NC(=O)[C@H](CCCNC(=N)N)NC(=O)[C@H](Cc2ccc(O)cc2)NC(=O)[C@H](CC(=O)O)NC(=O)[C@H](Cc2c[nH]c3ccccc23)NC(=O)[C@@H](N)CO)CSSC[C@@H](C(=O)O)NC(=O)[C@H](CCC(=O)O)NC1=O [reference compound] (H-SWDYRECYLEC-OH; disulfide 7-11; N-terminus and C-terminus assumed) | –
82 ± 13% | CC(C)C[C@@H]1NC(=O)[C@H](Cc2ccc(O)cc2)NC(=O)[C@@H]2CSCc3cc(cc(c3)CSC[C@@H](C(=O)O)NC(=O)[C@H](CCC(=O)O)NC1=O)CON=CC(=O)N[C@@H](Cc1c[nH]c3ccccc13)C(=O)N[C@@H](CC(=O)O)C(=O)N[C@@H](Cc1ccc(O)cc1)C(=O)N[C@@H](CCCNC(=N)N)C(=O)N[C@@H](CCC(=O)O)C(=O)N2 (WDYRECYLEC-OH; linker N-6-10 via X2; C-terminus assumed) | half-life ([1]; Streptomyces griseus): ~24 h
